Assay: Powder characteristics (Carr index, anti-caking property, fluidity) by intelligent powder comprehensive characteristic tester
Format: physicochemical
Parameters: key to Fluidity: Good: “good” means good solid state and good fluidity, which is favorable for formulation development; Less good: “less good” means average fluidity; Poor: “poor” means poor fluidity, which cannot be used for formulation development; key to Anti-caking property: Good: “good” means substantially no agglomeration or clumping; Less good: “less good” means partial clumping or agglomeration; Poor: “poor” means severe or complete clumping
Excerpt: The performance of the drug powder is influenced by various factors, among which the fluidity, anti-caking property and the like of the starting material drug (i.e., active pharmaceutical ingredient) play a key role in the formulation design, the quality control, the process design, the industrial production and the like of the drug. In the pharmaceutical field, poor fluidity mainly affects the uniformity of the mixed material, and such mixed material is easy to delaminate and has uneven material content; at the same time, the resulting tablet are easy to delaminate during tableting, resulting in inconsistent content of the tablet pressed at different times, and it is easy to cause a significant difference in tablet weight.
The fluidity, the anti-caking property and the like of compound 1 (i.e., (6E)-6-[(6-chloro-2-methyl-2H-indazol-5-yl)imino]-3-[(1-methyl-1H-1,2,4-triazol-3-yl)methyl]-1-(2,4,5-trifluorobenzyl)-1,3,5-triazinane-2,4-dione with different purities) in the above Comparative Examples 1-2 and Examples 1-12 were measured by an intelligent powder comprehensive characteristic tester (HMKTest LABULK, model: HMKFlow 6393 PT1000).
The Carr index reflects the quality of the fluidity, and a smaller value indicates better fluidity, while a Carr index of more than 23% generally indicates poor fluidity. For anti-caking property, “good” means substantially no agglomeration or clumping, “less good” means partial clumping or agglomeration, and “poor” means severe or complete clumping. For fluidity, “good” means good solid state and good fluidity, which is favorable for formulation development; “less good” means average fluidity; and “poor” means poor fluidity, which cannot be used for formulation development.
Similarly, the fluidity of the fumarate salt solid form of compound 1 prepared in the above Examples 28-29 and Comparative Example 3 was measured.

[1] = solid form of compound 1, smaller value = better fluidity, more than 23% generally indicates poor fluidity
[2] = fumarate salt solid form of compound 1

Row | SMILES | Anti-caking property (solid form of compound 1) | Fluidity (solid form of compound 1) | Carr index (%) [1] [%] | Anti-caking property [2] | Carr index (%) [2] [%] | Fluidity [2]
1 | Cn1cnc(Cn2c(=O)[nH]/c(=N\c3cc4cn(C)nc4cc3Cl)n(Cc3cc(F)c(F)cc3F)c2=O)n1 [Comparative Example 1, (6E)-6-[(6-chloro-2-methyl-2H-indazol-5-yl)imino]-3-[(1-methyl-1H-1,2,4-triazol-3-yl)methyl]-1-(2,4,5-trifluorobenzyl)-1,3,5-triazinane-2,4-dione, reference compound] | Poor | Poor | 42.1 |  |  | 
2 | Cn1cnc(Cn2c(=O)[nH]/c(=N\c3cc4cn(C)nc4cc3Cl)n(Cc3cc(F)c(F)cc3F)c2=O)n1 [Comparative Example 2, (6E)-6-[(6-chloro-2-methyl-2H-indazol-5-yl)imino]-3-[(1-methyl-1H-1,2,4-triazol-3-yl)methyl]-1-(2,4,5-trifluorobenzyl)-1,3,5-triazinane-2,4-dione, reference compound] | Poor | Poor | 39.4 |  |  | 
3 | Cn1cnc(Cn2c(=O)[nH]/c(=N\c3cc4cn(C)nc4cc3Cl)n(Cc3cc(F)c(F)cc3F)c2=O)n1 [Comparative Example 3, (6E)-6-[(6-chloro-2-methyl-2H-indazol-5-yl)imino]-3-[(1-methyl-1H-1,2,4-triazol-3-yl)methyl]-1-(2,4,5-trifluorobenzyl)-1,3,5-triazinane-2,4-dione, reference compound] |  |  |  | poor and Poor | 36.1 | poor and Poor
4 | Cn1cnc(Cn2c(=O)[nH]/c(=N\c3cc4cn(C)nc4cc3Cl)n(Cc3cc(F)c(F)cc3F)c2=O)n1 [Example 1, (6E)-6-[(6-chloro-2-methyl-2H-indazol-5-yl)imino]-3-[(1-methyl-1H-1,2,4-triazol-3-yl)methyl]-1-(2,4,5-trifluorobenzyl)-1,3,5-triazinane-2,4-dione] | Less good | Good | 21.4 |  |  | 
5 | Cn1cnc(Cn2c(=O)[nH]/c(=N\c3cc4cn(C)nc4cc3Cl)n(Cc3cc(F)c(F)cc3F)c2=O)n1 [Example 2, (6E)-6-[(6-chloro-2-methyl-2H-indazol-5-yl)imino]-3-[(1-methyl-1H-1,2,4-triazol-3-yl)methyl]-1-(2,4,5-trifluorobenzyl)-1,3,5-triazinane-2,4-dione] | Less good | Good | 20.7 |  |  | 
6 | Cn1cnc(Cn2c(=O)[nH]/c(=N\c3cc4cn(C)nc4cc3Cl)n(Cc3cc(F)c(F)cc3F)c2=O)n1 [Example 3, (6E)-6-[(6-chloro-2-methyl-2H-indazol-5-yl)imino]-3-[(1-methyl-1H-1,2,4-triazol-3-yl)methyl]-1-(2,4,5-trifluorobenzyl)-1,3,5-triazinane-2,4-dione] | Less good | Good | 18.7 |  |  | 
7 | Cn1cnc(Cn2c(=O)[nH]/c(=N\c3cc4cn(C)nc4cc3Cl)n(Cc3cc(F)c(F)cc3F)c2=O)n1 [Example 4, (6E)-6-[(6-chloro-2-methyl-2H-indazol-5-yl)imino]-3-[(1-methyl-1H-1,2,4-triazol-3-yl)methyl]-1-(2,4,5-trifluorobenzyl)-1,3,5-triazinane-2,4-dione] | Less good | Good | 19.4 |  |  | 
8 | Cn1cnc(Cn2c(=O)[nH]/c(=N\c3cc4cn(C)nc4cc3Cl)n(Cc3cc(F)c(F)cc3F)c2=O)n1 [Example 5, (6E)-6-[(6-chloro-2-methyl-2H-indazol-5-yl)imino]-3-[(1-methyl-1H-1,2,4-triazol-3-yl)methyl]-1-(2,4,5-trifluorobenzyl)-1,3,5-triazinane-2,4-dione] | Less good | Good | 18.8 |  |  | 
9 | Cn1cnc(Cn2c(=O)[nH]/c(=N\c3cc4cn(C)nc4cc3Cl)n(Cc3cc(F)c(F)cc3F)c2=O)n1 [Example 6, (6E)-6-[(6-chloro-2-methyl-2H-indazol-5-yl)imino]-3-[(1-methyl-1H-1,2,4-triazol-3-yl)methyl]-1-(2,4,5-trifluorobenzyl)-1,3,5-triazinane-2,4-dione] | Less good | Good | 18.5 |  |  | 
10 | Cn1cnc(Cn2c(=O)[nH]/c(=N\c3cc4cn(C)nc4cc3Cl)n(Cc3cc(F)c(F)cc3F)c2=O)n1 [Example 7, (6E)-6-[(6-chloro-2-methyl-2H-indazol-5-yl)imino]-3-[(1-methyl-1H-1,2,4-triazol-3-yl)methyl]-1-(2,4,5-trifluorobenzyl)-1,3,5-triazinane-2,4-dione] | Less good | Good | 17.1 |  |  | 
11 | Cn1cnc(Cn2c(=O)[nH]/c(=N\c3cc4cn(C)nc4cc3Cl)n(Cc3cc(F)c(F)cc3F)c2=O)n1 [Example 8, (6E)-6-[(6-chloro-2-methyl-2H-indazol-5-yl)imino]-3-[(1-methyl-1H-1,2,4-triazol-3-yl)methyl]-1-(2,4,5-trifluorobenzyl)-1,3,5-triazinane-2,4-dione] | Less good | Good | 21.2 |  |  | 
12 | Cn1cnc(Cn2c(=O)[nH]/c(=N\c3cc4cn(C)nc4cc3Cl)n(Cc3cc(F)c(F)cc3F)c2=O)n1 [Example 9, (6E)-6-[(6-chloro-2-methyl-2H-indazol-5-yl)imino]-3-[(1-methyl-1H-1,2,4-triazol-3-yl)methyl]-1-(2,4,5-trifluorobenzyl)-1,3,5-triazinane-2,4-dione] | Good | Good | 12.6 |  |  | 
13 | Cn1cnc(Cn2c(=O)[nH]/c(=N\c3cc4cn(C)nc4cc3Cl)n(Cc3cc(F)c(F)cc3F)c2=O)n1 [Example 10, (6E)-6-[(6-chloro-2-methyl-2H-indazol-5-yl)imino]-3-[(1-methyl-1H-1,2,4-triazol-3-yl)methyl]-1-(2,4,5-trifluorobenzyl)-1,3,5-triazinane-2,4-dione] | Good | Good | 13.4 |  |  | 
14 | Cn1cnc(Cn2c(=O)[nH]/c(=N\c3cc4cn(C)nc4cc3Cl)n(Cc3cc(F)c(F)cc3F)c2=O)n1 [Example 11, (6E)-6-[(6-chloro-2-methyl-2H-indazol-5-yl)imino]-3-[(1-methyl-1H-1,2,4-triazol-3-yl)methyl]-1-(2,4,5-trifluorobenzyl)-1,3,5-triazinane-2,4-dione] | Good | Good | 14.1 |  |  | 
15 | Cn1cnc(Cn2c(=O)[nH]/c(=N\c3cc4cn(C)nc4cc3Cl)n(Cc3cc(F)c(F)cc3F)c2=O)n1 [Example 12, (6E)-6-[(6-chloro-2-methyl-2H-indazol-5-yl)imino]-3-[(1-methyl-1H-1,2,4-triazol-3-yl)methyl]-1-(2,4,5-trifluorobenzyl)-1,3,5-triazinane-2,4-dione] | Good | Good | 15.1 |  |  | 
16 | Cn1cnc(Cn2c(=O)[nH]/c(=N\c3cc4cn(C)nc4cc3Cl)n(Cc3cc(F)c(F)cc3F)c2=O)n1.O=C(O)/C=C/C(=O)O [Example 28, (6E)-6-[(6-chloro-2-methyl-2H-indazol-5-yl)imino]-3-[(1-methyl-1H-1,2,4-triazol-3-yl)methyl]-1-(2,4,5-trifluorobenzyl)-1,3,5-triazinane-2,4-dione fumarate salt] |  |  |  | Good | 11.3 | Good
17 | Cn1cnc(Cn2c(=O)[nH]/c(=N\c3cc4cn(C)nc4cc3Cl)n(Cc3cc(F)c(F)cc3F)c2=O)n1 [Example 29, (6E)-6-[(6-chloro-2-methyl-2H-indazol-5-yl)imino]-3-[(1-methyl-1H-1,2,4-triazol-3-yl)methyl]-1-(2,4,5-trifluorobenzyl)-1,3,5-triazinane-2,4-dione] |  |  |  | Less good | 12.1 | Good
